Reference: patent US12702692B2, “Therapeutic use of calcium-activated chloride channel peptide activator” (CENTRE NATIONAL DE LA RECHERCHE SCIENTIFIQUE, priority 2020, dated 2026)

Assay: Tear fluid secretion in dry eye model (surgical removal of exorbital lachrymal gland)
Assay type: in vivo, Sprague-Dawley rats
Conditions: N13ter 10 mM topical
Experimental: Sprague-Dawley rats (males, around 200 g) were purchased from Charles River and adapted one week before processing the experiment. Two-three rats per cage were housed in a controlled environment of 12 hours intervals of light/dark cycles and free access to food and water. Animal experiments were approved by the Animal Care and Use Committee of the University of Barcelona (CEEA) and the Departament de Territori i Sostenibilitat of Generalitat de Catalunya, Catalonia, Spain (319/19; 10935) and followed the ethical guidelines of the International Association for the Study of Pain.
N13ter (also named Nter 13 peptide or N13) ([…] (SEQ ID NO: 2)) and scramble ([…] (SEQ ID NO: 7)) peptides were purchased from GenScript Biotech (Leiden, Netherlands) and provided by CNRS. Both peptides were dissolved in Phosphate Buffered Saline (PBS) at 10 mM and used for topical ocular application (5 ul per eye).
Tear fluid secretion (tearing rate) was measured using phenol red threads (Zone-Quick, Menicon, Nagoya, Japan) placed on the lower eyelid for 30 s without topical anesthesia (Trost, 2007; Acosta 2013). Tearing rate was determined with an accuracy of ±0.5 mm by measurement of the length of the red portion of the thread.
To establish a dry eye model, a similar procedure to those previously described was used (Callejo 2015, Pain; 156(3):483-495, Kovacs, 2016, Pain.; 157(2):399-417). Rats were intraperitoneally anaesthetized with ketamine/xylacine (80:10 mg/kg). […] Tear fluid secretion was measured in both eyes before (basal) and once a week at 1, 2, 3 and 4 weeks after surgery using phenol red threads (Zone-Quick, Menicon, Nagoya, Japan) placed on the lower eyelid for 30 s without topical anesthesia (Trost, 2007; Acosta 2013). Tearing rate was determined with an accuracy of ±0.5 mm by measurement of the length of the red portion of the thread. After tearing rate measurement on week 4, animals were divided in two groups and a solution containing one of the peptides (N13ter or PBS) was topically applied to the ocular surface (5 μl) and tearing rate was measured at 1, 3, 6, 12 and 24 h. […]

LARRSPRSSDGKL (SEQ ID NO: 2) (amino acid residues between positions 30 to 42 of the human KCNE1 protein sequence) [N13ter]
effect on tearing rate vs vehicle: statistically significant compared to vehicle group | time to return to basal values: ≤ 24 h | tearing rate at 3 h (peak) (n=14 eyes, 5 weeks basal 4.04±0.49 mm): 6.54±0.78 mm
